Test results: patent publication US10526580B2, “Differentiated cell population of endothelial cells derived from human pluripotent stem cells, composition, system, kit and uses thereof” (BIOCANT-ASSOCIAÇÃO DE TRANSFERÊNCIA DE TECNOLOGIA, priority 2012, dated 2020)

Columns and labels:
Format in all cases: cell-based, human
[1] = test system: microvessels formed by HAECs; assay: Matrigel assay, disruption of vascular networks; conditions: 1 μM, 20 h, on top of Matrigel
Experimental: (§1) To test the 7-Cyclo properties in the disruption of vascular networks, microvessels of hESC-derived ECs, HUAECs and HAECs were formed on top of Matrigel and then exposed to the drug for 20 h.
(§2) A 24-well plate was coated with Matrigel (0.4 mL, BD Biosciences) per well and incubated at 37° C. for 30 min. Cells were seeded on top of the polymerized Matrigel at a concentration of 1×10^5 cells per 300 μL of EGM-2 medium. After 1 h of incubation at 37° C., an extra 1 mL of EGM-2 was added. After 12 h, medium supplemented with 7-Cyclo (0, 0.1 or 1 μM) was added. Cord formation was evaluated by phase contrast microscopy (Carl Zeiss International, Germany), at time 0, 3 h and 20 h after 7-Cyclo addition.

[2] = test system: microvessels formed by HUAECs; assay: Matrigel assay, disruption of vascular networks; conditions: 1 μM, 20 h, on top of Matrigel
Experimental: as §1, §2

[3] = test system: microvessels of hESC-derived ECs; assay: Matrigel assay, disruption of vascular networks; conditions: 1 μM, 20 h, on top of Matrigel
Experimental: as §1, §2

[4] = test system: kinase activity of HUAECs; assay: Kinase-Glo Luminescence Kinase Assay of cells; conditions: 24 h incubation, 0.1 or 1 μM
Experimental: (§3) The kinase activity of the hESC-derived ECs and HUAECs was assessed by luminescence (signal is inversely correlated with the level of kinase activity) in the absence or presence of the compound 7-Cyclo (FIG. 6D).
(§4) The kinase activity of cells was measured by a Kinase-Glo® Luminescence Kinase Assay (Promega). Cells incubated with 7-Cyclo for 24 h were treated with the kinase reagent from the kit and luminescence acquired using a Spectra Max Gemini luminometer. The luminescence signal is correlated with the amount of ATP present and its inversely correlated with the amount of kinase activity.

[5] = test system: kinase activity of hESC-derived ECs; assay: Kinase-Glo Luminescence Kinase Assay of cells; conditions: 24 h incubation, 0.1 or 1 μM
Experimental: as §3, §4

Structure (SMILES): Nc1ncnc2c1c(-c1ccc(Oc3ccccc3)cc1)cn2C1CCCC1 [7-Cyclo, 7-cyclopentyl-5-(4-phenoxy)phenyl-7H-pyrrolo[2,3-d]pyrimidin-4-ylamine]
- effect on network length and number of sprouts in microvessels [1]: negligible effect
- effect on network length and number of sprouts in microvessels [2]: negligible effect
- network length and number of sprouts in microvessels [3]: statistically significant reduction
- kinase activity versus time zero (luminescence) [4]: no significant decrease
- kinase activity versus time zero (luminescence) [5]: decreased significantly
